Drawing on the SangsterLogP compilation, this text covers logP for 32 compounds.

Molecules are shown by their SMILES.

This data set is described as follows: method code SF-AS, from DOI: 10.1016/0045-6535(94)00381-4.
As usually defined, the logP is a log measure of how a compound divides between an organic and an aqueous phase. Low readings indicate a more hydrophilic compound, high ones a more lipophilic compound. In the case of `COC(=O)C1(S(=O)(=O)c2ccc(Cl)cc2)CCC1`, the logP was 2.28. Then `CC(C)OC(=O)C1(S(=O)(=O)c2ccc(Cl)cc2)CCCCCC1`, with 3.83; and `CCOC(=O)C1(S(=O)(=O)c2ccc(C)cc2)CCC1`, with 2.31; and `COC(=O)C1(S(=O)(=O)c2ccccc2)CC1`, with 1.43. In the case of `Cc1ccc(S(=O)(=O)C2(C(=O)OC(C)C)CCCCC2)cc1` it was 3.21; in that of `CC(C)OC(=O)C1(S(=O)(=O)c2ccc([N+](=O)[O-])cc2)CCC1`, 2.36. Regarding `CC(C)OC(=O)C1(S(=O)(=O)c2ccc([N+](=O)[O-])cc2)CCCCCC1`, the logP turned out to be 3.41. In the case of `COC(=O)C1(S(=O)(=O)c2ccc(Br)cc2)CCC1` it was 2.45. In the case of `COC(=O)C1(S(=O)(=O)c2ccc(C)cc2)CCCCC1` it was 2.54; in that of `CC(C)OC(=O)C1(S(=O)(=O)c2ccc(Cl)cc2)CCCCC1`, 3.49. Then `CC(C)OC(=O)C1(S(=O)(=O)c2ccc(Cl)cc2)CC1`, with 2.64.

`COC(=O)C1(S(=O)(=O)c2ccc([N+](=O)[O-])cc2)CC1` yielded a logP of 1.33. Then `COC(=O)C1(S(=O)(=O)c2ccc(C)cc2)CC1`, with 1.77; and `CC(C)OC(=O)C1(S(=O)(=O)c2ccc([N+](=O)[O-])cc2)CCCCC1`, with 2.84. In the case of `COC(=O)C1(S(=O)(=O)c2ccc(Br)cc2)CC1` it was 2.32.

`COC(=O)C1(S(=O)(=O)c2ccccc2)CCCC1`: the log partition coefficient (logP) is 1.98. In the case of `Cc1ccc(S(=O)(=O)C2(C(=O)OC(C)C)CCCC2)cc1` it was 2.88; in that of `COC(=O)C1(S(=O)(=O)c2ccc(Cl)cc2)CC1`, 2.03; in that of `CC(C)OC(=O)CS(=O)(=O)c1ccc(Cl)cc1`, 2.04.

As for `COC(=O)C1(S(=O)(=O)c2ccc(Br)cc2)CCCCC1`, the logP was 2.94.

Turning to `COC(=O)CS(=O)(=O)c1ccc(Br)cc1`, the logP turned out to be 1.52. In the case of `COC(=O)CS(=O)(=O)c1ccc([N+](=O)[O-])cc1Cl`, the logP was 1.45. Then `COC(=O)C1(S(=O)(=O)c2ccccc2)CCCCC1`, with 2.3; and `COC(=O)CS(=O)(=O)c1ccc(Cl)cc1`, with 1.31; and `COC(=O)C1(S(=O)(=O)c2ccc(Br)cc2)CCCC1`, with 2.73.

As for `CC(C)(C)OC(=O)C1(S(=O)(=O)c2ccc(Cl)cc2)CC1`, the logP amounted to 2.68. In the case of `Cc1ccc(S(=O)(=O)C2(C(=O)OC(C)C)CC2)cc1` it was 2.52.

For the compound `CC(C)OC(=O)C1(S(=O)(=O)c2ccc(Cl)cc2)CCCC1`, the logP was 3.16. In the case of `CCOC(=O)C1(S(=O)(=O)c2ccc(C)cc2)CC1` it was 2.23; in that of `CC(C)OC(=O)C1(S(=O)(=O)c2ccc([N+](=O)[O-])cc2)CC1`, 2.05; in that of `COC(=O)CS(=O)(=O)c1ccccc1`, 0.93. In the case of `COC(=O)C1(S(=O)(=O)c2ccccc2)CCC1` it was 1.63.
